Laboratory results: ChEMBL document CHEMBL1201862, “PubChem BioAssay data set” (2004)
Activity calls are given as the source filed them.

Experiments:
[1] = target: Delta-type opioid receptor (Homo sapiens, UniProt P41143); experiment: Counterscreen for agonists of heterodimerization of the mu 1 (OPRM1) and delta 1 (OPRD1) opioid receptors: Luminescence-based cell-based high throughput dose response assay to identify agonists of OPRD1 homodimerization. [Related pubchem assays (depositor defined):AID504326, AID504355, AID504692, AID504904, AID504905]; format: functional
Chain of Delta-type opioid receptor (P41143 whole entry): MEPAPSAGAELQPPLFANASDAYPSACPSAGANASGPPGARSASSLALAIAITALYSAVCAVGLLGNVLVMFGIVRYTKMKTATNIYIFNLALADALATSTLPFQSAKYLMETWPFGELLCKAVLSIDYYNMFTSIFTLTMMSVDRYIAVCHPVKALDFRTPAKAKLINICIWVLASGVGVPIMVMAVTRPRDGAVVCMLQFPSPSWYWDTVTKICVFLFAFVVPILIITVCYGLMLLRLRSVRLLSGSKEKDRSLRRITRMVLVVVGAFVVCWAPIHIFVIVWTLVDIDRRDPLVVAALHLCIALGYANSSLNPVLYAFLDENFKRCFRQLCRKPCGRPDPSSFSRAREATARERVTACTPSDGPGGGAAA

[2] = target: 5-hydroxytryptamine receptor 5A (Homo sapiens, UniProt P47898); experiment: Counterscreen for agonists of OPRM1-OPRD1 heterodimerization: luminescence-based cell-based high throughput dose response assay to identify agonists of 5-hydroxytryptamine (serotonin) 5A receptor (HTR5A). [Related pubchem assays (depositor defined):AID504326, AID504355, AID504692, AID504904, AID504905]; format: functional
Chain of 5-hydroxytryptamine receptor 5A (P47898 whole entry): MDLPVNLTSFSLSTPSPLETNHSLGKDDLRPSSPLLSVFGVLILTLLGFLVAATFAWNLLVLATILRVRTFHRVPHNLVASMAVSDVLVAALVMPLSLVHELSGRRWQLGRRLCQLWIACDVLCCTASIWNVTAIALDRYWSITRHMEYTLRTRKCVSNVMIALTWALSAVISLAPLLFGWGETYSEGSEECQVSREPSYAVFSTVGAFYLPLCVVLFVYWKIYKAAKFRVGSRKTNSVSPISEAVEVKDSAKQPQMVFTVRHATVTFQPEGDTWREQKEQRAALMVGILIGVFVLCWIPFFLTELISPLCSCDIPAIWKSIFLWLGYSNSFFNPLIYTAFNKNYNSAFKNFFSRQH

[3] = target: T1, Short transient receptor potential channel 4 (Mus musculus, UniProt Q9QUQ5); experiment: calcium entry via TRPC4 opening agents – cell-based, HEK293 TRPC4/mu-opioid, Fluo-4 calcium, dose response (AID 434937); format: functional
T1 sequence (Q9QUQ5 whole entry): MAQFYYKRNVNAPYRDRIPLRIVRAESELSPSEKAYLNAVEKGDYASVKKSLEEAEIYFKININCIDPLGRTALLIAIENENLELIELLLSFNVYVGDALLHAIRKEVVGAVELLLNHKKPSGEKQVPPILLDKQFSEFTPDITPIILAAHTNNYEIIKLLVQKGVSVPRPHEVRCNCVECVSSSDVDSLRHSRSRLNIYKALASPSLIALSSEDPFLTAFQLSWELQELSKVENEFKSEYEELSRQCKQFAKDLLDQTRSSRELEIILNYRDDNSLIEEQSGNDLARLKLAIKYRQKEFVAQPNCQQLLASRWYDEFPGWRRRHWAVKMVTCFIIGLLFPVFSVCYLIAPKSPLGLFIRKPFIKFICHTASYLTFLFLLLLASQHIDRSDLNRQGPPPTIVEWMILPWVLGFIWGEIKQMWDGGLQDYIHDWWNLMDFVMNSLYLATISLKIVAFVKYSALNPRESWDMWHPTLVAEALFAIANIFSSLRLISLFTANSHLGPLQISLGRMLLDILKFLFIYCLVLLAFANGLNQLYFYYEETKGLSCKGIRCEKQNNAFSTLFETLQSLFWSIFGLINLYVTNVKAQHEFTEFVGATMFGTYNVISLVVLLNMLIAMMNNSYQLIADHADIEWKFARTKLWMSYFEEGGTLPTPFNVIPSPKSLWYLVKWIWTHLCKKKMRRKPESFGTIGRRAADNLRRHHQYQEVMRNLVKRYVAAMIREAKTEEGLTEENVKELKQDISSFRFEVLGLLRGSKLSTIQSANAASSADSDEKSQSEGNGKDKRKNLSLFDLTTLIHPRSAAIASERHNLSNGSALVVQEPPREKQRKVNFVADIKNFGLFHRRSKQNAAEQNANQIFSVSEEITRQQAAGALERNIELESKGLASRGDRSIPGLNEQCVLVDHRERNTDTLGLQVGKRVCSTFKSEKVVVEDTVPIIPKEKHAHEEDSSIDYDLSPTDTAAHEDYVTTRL

Mu-type opioid receptor = Mu-type opioid receptor (Homo sapiens, UniProt P35372); experiment: Counterscreen for agonists of heterodimerization of the mu 1 (OPRM1) and delta 1 (OPRD1) opioid receptors: Luminescence-based cell-based high throughput dose response assay to identify agonists of OPRM1 homodimerization.; format: functional;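 also: U2OS cells expressing OPRM1 and beta-arrestin as split beta-galactosidase partners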
Chain of Mu-type opioid receptor (P35372 whole entry): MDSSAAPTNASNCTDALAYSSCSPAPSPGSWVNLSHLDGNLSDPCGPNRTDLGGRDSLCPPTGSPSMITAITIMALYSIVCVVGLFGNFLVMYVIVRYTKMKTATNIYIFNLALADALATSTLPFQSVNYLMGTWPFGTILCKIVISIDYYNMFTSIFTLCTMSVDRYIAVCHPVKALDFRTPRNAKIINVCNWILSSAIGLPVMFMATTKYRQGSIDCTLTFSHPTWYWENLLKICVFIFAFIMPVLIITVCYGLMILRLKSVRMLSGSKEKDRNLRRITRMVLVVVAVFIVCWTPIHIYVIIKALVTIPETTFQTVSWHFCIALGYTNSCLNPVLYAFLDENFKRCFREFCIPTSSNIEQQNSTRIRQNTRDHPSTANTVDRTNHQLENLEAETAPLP

Jurkat = experiment: blockers of NF-kB activation in T cells – Jurkat, luciferase reporter, luminescence, B- and T-cell, dose response (AID 489004); format: functional, cell-based; details: Homo sapiens;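 also: NF-kB luciferase reporter Jurkat cells stimulated with PMA plus ionomycin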
[4] = HEK-293T viability loss, compound-treated – cell-based, uHTS hits, cytotoxicity control for B/T-cell NF-kB inhibitor project, dose response (AID 489019); format: functional;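 also: IC50 reflects cytotoxicity as loss of cell viability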
[5] = Luminescence Cell-Based Dose Retest to Confirm Inhibitors of Cancer Stem Cells. [Related pubchem assays (depositor defined):AID2717, AID2721]; format: functional; details: Homo sapiens
[6] = viability loss of HMLE_sh_eGFP cells – cell-based, luminescence, counter-screen for HMLE_sh_ECad selective toxicity project, dose response (AID 463074); format: functional, Homo sapiens;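 also: HMLE human mammary epithelial cells expressing control shRNA against eGFP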
H4 = experiment: Luminescence Cell-Based Dose Response HTS to Identify Activators of 5'UTR Stem-Loop Driven Prion Protein mRNA Translation in H4 Neuroglioblastoma Cells. [Related pubchem assays: 1829 (Project Summary), 1814 (Primary HTS)]; format: functional; details: Homo sapiens
Vero [7] = experiment: cells; format: functional, cell-based; details: Chlorocebus sabaeus
Vero [8] = experiment: cells; format: functional; details: Chlorocebus sabaeus
[9] = target: T2, Microphthalmia-associated transcription factor (Homo sapiens, UniProt O75030); experiment: reducers of TRPM1 reporter luminescence, concentration series – cell-based, SK-MEL-5, cherry-picked, set 3, MITF inhibitor project, dose response (AID 493073); format: functional;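 also: SK-MEL-5 melanoma cells with luciferase driven by the MITF target TRPM1 promoter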
T2 sequence (O75030 whole entry): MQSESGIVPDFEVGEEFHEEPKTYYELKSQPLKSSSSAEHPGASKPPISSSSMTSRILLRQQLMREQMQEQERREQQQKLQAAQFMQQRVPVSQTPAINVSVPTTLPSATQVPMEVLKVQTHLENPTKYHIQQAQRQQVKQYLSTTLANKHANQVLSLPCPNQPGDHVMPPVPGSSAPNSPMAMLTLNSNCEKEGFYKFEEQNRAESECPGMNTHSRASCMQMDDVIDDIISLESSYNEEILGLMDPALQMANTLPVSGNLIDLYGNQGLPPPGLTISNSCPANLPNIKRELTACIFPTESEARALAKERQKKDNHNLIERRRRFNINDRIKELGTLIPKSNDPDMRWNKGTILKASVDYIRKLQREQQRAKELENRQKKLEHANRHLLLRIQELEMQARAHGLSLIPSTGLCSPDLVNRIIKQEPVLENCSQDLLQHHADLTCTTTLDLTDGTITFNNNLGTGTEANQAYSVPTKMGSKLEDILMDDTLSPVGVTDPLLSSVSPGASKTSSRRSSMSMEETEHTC

[10] = Luminescence Cell-Based Dose Response HTS to Identify Activators of Luciferase Translation or Activity in H4 […] Cells. [Related pubchem assays: 1829 (Project Summary), 1814 (Primary HTS)]; format: functional
Tumor necrosis factor = Tumor necrosis factor (Homo sapiens, UniProt P01375); experiment: analog potency on TNFa NF-kB signaling – cell-based, revised, SAR follow-up (AID 2337); format: functional
Chain of Tumor necrosis factor (P01375 whole entry, the tested form may be a part): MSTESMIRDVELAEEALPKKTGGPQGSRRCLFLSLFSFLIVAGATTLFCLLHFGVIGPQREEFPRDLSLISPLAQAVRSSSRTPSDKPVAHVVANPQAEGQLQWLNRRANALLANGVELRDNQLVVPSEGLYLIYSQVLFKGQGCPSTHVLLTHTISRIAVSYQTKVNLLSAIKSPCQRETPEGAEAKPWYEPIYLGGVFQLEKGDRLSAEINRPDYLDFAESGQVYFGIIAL

[11] = target: Nucleotide-binding oligomerization domain-containing protein 1 (Homo sapiens, UniProt Q9Y239); experiment: blockers of NOD1 pathway activity – revised, SAR follow-up (AID 2333); format: functional
Chain of Nucleotide-binding oligomerization domain-containing protein 1 (Q9Y239 whole entry, the tested form may be a part): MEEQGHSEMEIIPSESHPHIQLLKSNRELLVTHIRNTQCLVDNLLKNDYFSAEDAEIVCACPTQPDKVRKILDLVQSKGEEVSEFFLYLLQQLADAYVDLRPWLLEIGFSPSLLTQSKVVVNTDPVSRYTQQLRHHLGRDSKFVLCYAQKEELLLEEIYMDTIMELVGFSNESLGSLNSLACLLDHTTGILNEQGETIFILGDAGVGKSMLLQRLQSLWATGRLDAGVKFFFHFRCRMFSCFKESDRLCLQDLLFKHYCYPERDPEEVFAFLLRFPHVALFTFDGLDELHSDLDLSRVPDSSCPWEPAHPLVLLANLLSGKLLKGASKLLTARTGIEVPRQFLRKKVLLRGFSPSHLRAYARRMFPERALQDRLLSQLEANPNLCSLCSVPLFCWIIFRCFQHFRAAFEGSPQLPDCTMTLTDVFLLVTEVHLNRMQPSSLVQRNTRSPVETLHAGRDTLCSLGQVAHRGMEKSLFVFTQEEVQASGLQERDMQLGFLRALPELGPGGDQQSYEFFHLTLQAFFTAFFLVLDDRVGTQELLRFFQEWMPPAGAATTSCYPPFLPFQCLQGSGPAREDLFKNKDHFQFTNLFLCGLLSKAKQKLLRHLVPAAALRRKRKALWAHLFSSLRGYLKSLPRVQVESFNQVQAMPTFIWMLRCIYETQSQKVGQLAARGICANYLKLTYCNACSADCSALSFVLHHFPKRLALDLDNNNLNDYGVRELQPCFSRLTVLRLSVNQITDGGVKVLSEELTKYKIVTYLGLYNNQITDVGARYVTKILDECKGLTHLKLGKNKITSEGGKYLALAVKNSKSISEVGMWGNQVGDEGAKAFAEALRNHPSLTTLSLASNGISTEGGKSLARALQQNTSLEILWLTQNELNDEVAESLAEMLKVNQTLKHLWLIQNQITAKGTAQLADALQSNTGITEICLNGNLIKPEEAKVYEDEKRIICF

[12] = target: Nucleotide-binding oligomerization domain-containing protein 2 (Homo sapiens, UniProt Q9HC29); experiment: PubChem AID 2334; format: functional
Chain of Nucleotide-binding oligomerization domain-containing protein 2 (Q9HC29 whole entry, the tested form may be a part): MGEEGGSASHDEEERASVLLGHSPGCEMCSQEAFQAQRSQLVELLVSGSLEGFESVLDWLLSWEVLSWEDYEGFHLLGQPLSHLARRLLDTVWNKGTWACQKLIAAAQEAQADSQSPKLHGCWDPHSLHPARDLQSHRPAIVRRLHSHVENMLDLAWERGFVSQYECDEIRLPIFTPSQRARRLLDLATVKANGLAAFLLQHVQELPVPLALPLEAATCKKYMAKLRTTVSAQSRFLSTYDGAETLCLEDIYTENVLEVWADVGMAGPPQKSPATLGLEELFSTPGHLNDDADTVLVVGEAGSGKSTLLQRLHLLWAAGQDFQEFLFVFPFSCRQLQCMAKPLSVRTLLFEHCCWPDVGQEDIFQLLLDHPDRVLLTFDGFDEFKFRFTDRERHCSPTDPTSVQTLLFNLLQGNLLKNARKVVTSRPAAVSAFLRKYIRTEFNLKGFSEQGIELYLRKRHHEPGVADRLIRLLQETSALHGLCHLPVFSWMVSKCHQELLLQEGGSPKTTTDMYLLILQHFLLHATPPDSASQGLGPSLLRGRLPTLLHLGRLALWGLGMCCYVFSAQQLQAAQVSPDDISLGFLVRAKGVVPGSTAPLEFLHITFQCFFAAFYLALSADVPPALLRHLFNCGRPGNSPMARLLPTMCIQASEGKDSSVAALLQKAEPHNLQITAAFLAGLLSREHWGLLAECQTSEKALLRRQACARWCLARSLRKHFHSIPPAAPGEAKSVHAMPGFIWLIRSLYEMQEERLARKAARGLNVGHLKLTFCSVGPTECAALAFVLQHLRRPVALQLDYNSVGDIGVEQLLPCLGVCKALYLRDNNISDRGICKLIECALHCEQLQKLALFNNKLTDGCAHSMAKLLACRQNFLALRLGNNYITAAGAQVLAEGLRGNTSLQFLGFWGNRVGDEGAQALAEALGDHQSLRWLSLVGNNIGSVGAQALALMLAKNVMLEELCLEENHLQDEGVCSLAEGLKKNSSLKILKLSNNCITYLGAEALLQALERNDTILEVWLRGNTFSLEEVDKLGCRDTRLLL

HEK293 [13] = experiment: cells; details: Homo sapiens
HEK293 [14] = experiment: cells; details: Homo sapiens; remark: listed apart in the source
HEK293 [15] = experiment: cells; details: Homo sapiens; remark: listed apart in the source
Escherichia coli = experiment: microbe, parasite or virus in culture
INS1 = experiment: INS-1E survival protection against cytokine death – cell-based, luminescence, retest, dose response (AID 449756); format: functional; details: Rattus norvegicus;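 also: cell death triggered by IL-1 beta plus TNF-alpha plus IFN-gamma mixture; protective hits raise ATP signal compared with cytokine alone wells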

Cc1ccc(-n2cc(CNC(C)c3cnn(C)c3)c(-c3ccc(F)cc3)n2)cc1 (stereo unspecified)
EC50 [1]: 37.3 µM (inactive)
EC50 [2]: > 92.5 µM (inactive)
EC50 [3]: 1.88 µM (active)
EC50 (Mu-type opioid receptor): 2.42 µM (active)

O=C(Nc1nc(-c2ccc(F)c(F)c2)cs1)c1ccc(OCC2CCCO2)cc1 (stereo unspecified)
IC50 (Jurkat): > 80 µM (inactive)
IC50 [4]: > 80 µM (inactive)

NC(=O)CC(NC(=O)Cc1cccc2ccccc12)c1ccc(NCCOc2ccccc2)c([N+](=O)[O-])c1 (stereo unspecified)
AC50 [5]: 147 µM (active)
AC50 [6]: 22.9 µM (active)

N#C/C(=C\C=C\c1ccccc1[N+](=O)[O-])C(=O)NCc1ccccc1
EC50 (H4): > 120 µM (not active)
IC50 (Vero [7]): > 25 µM (active)
CC50 (Vero [8]): 15.3 µM (active)
AC50 [9]: 14.7 µM (active)
EC50 [10]: > 120 µM (not active)

Cn1nccc1C(=O)N[C@@H]1CCCc2c1cnn2-c1ccccc1F
IC50 (Tumor necrosis factor): > 20 µM (inactive)
IC50 [11]: 18.7 µM (active)
IC50 [12]: > 20 µM (inactive)
IC50 (HEK293 [13]): > 20 µM (inactive)

C=CCNc1sc(C(=O)c2ccccc2)c(N)c1-c1nc2ccccc2s1
EC50 (HEK293 [14]): > 59.7 µM (inactive)
EC50 (HEK293 [15]): > 59.7 µM (inactive)

C=CCc1c(C)nc(C)nc1N/N=C/c1ccc(N(C)C)cc1
AC50 (Escherichia coli): 26.4 µM (active)
AC50 (INS1): 2.54 µM (active)
